Measured values as given in US5559101A, “L-ribofuranosyl nucleosides” (priority 1994, dated 1996).
In brackets after ≈: the same amount, converted by molar mass.

What was measured:
[1] = tested on: COLO320 (colon); experiment: Radiometric growth inhibition of tumor cells, COLO320; format: cell-based, human
Source text: (§1) CELL LINES: Eight different established human cell lines CALU (lung), COLO320 (colon), H578St (breast), HT-29 (colon), MCF-7 (breast), OM-1 (colon), SKLU (lung) and SKMES(lung), and two control cell lines (bone marrow and/or fibroblast cells) were utilized. All cell lines were obtained from the Tumor Cloning Laboratory, Institute for Drug Development, Cancer Therapy and Research Center, San Antonio, Tex. All cell lines grew as monolayers in the appropriate culture medium supplemented with heat-inactivated calf serum. All reagents were obtained from Grand Island Biological Co., Grand Island, N.Y.
(§2) The iv formulations of the compounds of the present invention were prepared with sterile buffered saline and stored at -70° C. until required for testing.
(§3) Following trypsinization, tumor cells were suspended in tissue culture medium and exposed to the antitumor agents continuously at three different concentrations: 10, 1 and 0.1 μg/ml.
(§4) RADIOMETRIC MEASUREMENT OF GROWTH INHIBITION: Growth inhibition was assessed with the BACTEC System 460 (Johnston Laboratories, Towson, Md.) after addition of the antitumor agent to the cell in the respective growth medium containing ^14 C-glucose at a final concentration of 2 μCi/ml.
(§5) Two mls of the tumor cell suspension containing radioactive glucose were seeded into sterile, disposable 15 ml vials by injection through self-sealing rubber-aluminum caps. […] The seeded vials were then incubated at 37° C. Measurement of the release of ^14 CO2 resulting from the metabolism of ^14 C-glucose were performed on days 6, 9, 12 and 15 in the BACTEC instrument. This instrument flushes the ^14 CO2 containing air out of the vials into an ionization chamber that converts dpm to growth index values. […] Each data point represents triplicate values.
(§6) All compounds were dosed on an equimilimolar basis.

[2] = tested on: MCF-7 (breast); experiment: Radiometric growth inhibition of tumor cells, MCF-7; format: cell-based, human; parameters: % SURVIVAL TUMOR: concentration or dose not given beside the values
Source text: as §1, §2, §3, §4, §5, §6

[3] = tested on: SKLU (lung); experiment: Radiometric growth inhibition of tumor cells, SKLU; format: cell-based, human
Source text: as §1, §2, §3, §4, §5, §6

[4] = tested on: CALU (lung); experiment: Radiometric growth inhibition of tumor cells, CALU; format: cell-based, human; parameters: % SURVIVAL TUMOR: concentration or dose not given beside the values
Source text: as §1, §2, §3, §4, §5, §6

[5] = In vitro survival of bone marrow control cells (radiometric BACTEC); format: cell-based; settings: bone marrow cells
Source text: as §1, §2, §3, §4, §5, §6

[6] = tested on: OM-1 (colon); experiment: Radiometric growth inhibition of tumor cells, OM-1; format: cell-based, human
Source text: as §1, §2, §3, §4, §5, §6

[7] = tested on: HS578T (breast); experiment: Radiometric growth inhibition of tumor cells, HS578T; format: cell-based, human
Source text: as §1, §2, §3, §4, §5, §6

[8] = tested on: SKMES (lung); experiment: Radiometric growth inhibition of tumor cells, SKMES; format: cell-based, human
Source text: as §1, with “N.Y. […]” for “N.Y.”
RADIOMETRIC MEASUREMENT OF GROWTH INHIBITION: Growth inhibition was assessed with the BACTEC System 460 (Johnston Laboratories, Towson, Md.) after addition of the antitumor agent to the cell in the respective growth medium containing ^14 C-glucose at a final concentration of 2 μCi/ml. […]
Two mls of the tumor cell suspension containing radioactive glucose were seeded into sterile, disposable 15 ml vials by injection through self-sealing rubber-aluminum caps. […] Chemotherapy sensitivity was calculated by comparing the growth index values of drug-treated vials to that observed in control vials. […]

[9] = tested on: HT29 (colon); experiment: Radiometric growth inhibition of tumor cells, HT29; format: cell-based, human; parameters: % SURVIVAL TUMOR: concentration or dose not given beside the values
Source text: as §1, §2, §3, §4, §5, §6

Question: For `O=c1[nH]cc(F)c(=O)[nH]1` [Example 5-FU, 5-fluorouracil, reference compound], which IC50 ([1]; Homo sapiens, COLO 320) is on record?
Answer: Its IC50 is < 0.6 µg/mL.

Question: And the “% SURVIVAL TUMOR” value ([1]; human, colo320 colon tumor cells)?
Answer: Its value is 1.0%.

Question: And the IC50 ([2]; Homo sapiens, MCF7)?
Answer: The IC50 was < 0.6 µg/mL.

Question: What about the “% SURVIVAL TUMOR” value ([2]; MCF-7, continuous exposure) of the same molecule?
Answer: Its value is 0.8%.

Question: And the IC50 ([3]; Homo sapiens)?
Answer: Its IC50 is 1.05 µg/mL (≈ 8.07 µM).

Question: And the “% SURVIVAL TUMOR” value ([3]; human, sklu lung tumor cells)?
Answer: The value was 5.0%.

Question: And the “% SURVIVAL TUMOR” value ([4]; CALU, continuous exposure)?
Answer: The value was 2.2%.

Question: What about the IC50 ([4]; Homo sapiens) of the same molecule?
Answer: The IC50 was < 0.6 µg/mL.

Question: What about the viability [5] of the same molecule?
Answer: Its viability is 1.9%.

Question: And the IC50 ([6]; Homo sapiens)?
Answer: The IC50 was 1.47 µg/mL (≈ 11.3 µM).

Question: And the “% SURVIVAL TUMOR” value ([6]; human, om-1 colon tumor cells)?
Answer: The value was 1.7%.

Question: And the “% SURVIVAL TUMOR” value ([7]; HS578T, continuous exposure)?
Answer: Its value is 43.5%.

Question: What about the IC50 ([7]; Homo sapiens, Hs-578T) of the same molecule?
Answer: Its IC50 is < 0.6 µg/mL.

Question: What about the IC50 ([8]; Homo sapiens, concentration required to kill 50%) of the same molecule?
Answer: The IC50 was < 0.6 µg/mL.

Question: And the “% SURVIVAL TUMOR” value ([8]; continuous exposure)?
Answer: The value was 11.2%.

Question: What about the “% SURVIVAL TUMOR” value ([9]; HT29, continuous exposure) of the same molecule?
Answer: Its value is 1.2%.

Question: And the IC50 ([9]; Homo sapiens, HT-29)?
Answer: Its IC50 is 0.613 µg/mL (≈ 4.71 µM).
